Tested on: pentagastrin-stimulated acid secretion of the perfused rat stomach
Settings: anesthetized CD rat, dose 3.0 μmol/kg i.d. (intraduodenal)
Description: Testing of the Secretion-Inhibiting Action on the Perfused Rat Stomach
The abdomen of anesthetized rats (CD rat, female, 200–250 g; 1.5 g/kg i.m. urethane) was opened after tracheotomy by a median upper abdominal incision and a PVC catheter was fixed transorally in the esophagus and another via the pylorus such that the ends of the tubes just projected into the gastric lumen. The catheter leading from the pylorus led outward into the right abdominal wall through a side opening.
After thorough rinsing (about 50–100 ml), warm (37° C.) physiological NaCl solution was continuously passed through the stomach (0.5 ml/min, pH 6.8–6.9; Braun-Unita I). The pH (pH meter 632, glass electrode EA 147; φ=5 mm, Metrohm) and, by titration with a freshly prepared 0.01N NaOH solution to pH 7 (Dosimat 665 Metrohm), the secreted HCl were determined in the effluent in each case collected at an interval of 15 minutes.
The gastric secretion was stimulated by continuous infusion of 1 μg/kg (=1.65 ml/h) of i.v. pentagastrin (left femoral vein) about 30 min after the end of the operation (i.e. after determination of 2 preliminary fractions). The substances to be tested were administered intraduodenally in a 2.5 ml/kg liquid volume 60 min after the start of the continuous pentagastrin infusion.
The body temperature of the animals was kept at a constant 37.8–38° C. by infrared irradiation and heat pads (automatic, stepless control by means of a rectal temperature sensor).

SMILES	Inhibition of acid secretion [%]
CCN(CC)C(=O)c1cn2c(C)c(C)nc2c2c1CCC(c1ccccc1)O2 (stereo not drawn) [Example 1, 2,3-Dimethyl-9-phenyl-7H-8,9-dihydro-pyrano-[2,3-c]-N-(diethyl)imidazo[1,2-a]pyridine-6-carboxamide]	100
CCOC(=O)c1cn2c(C)c(C)nc2c2c1CCC(c1ccccc1)O2 (stereo not drawn) [Example 2, Ethyl 2,3-dimethyl-9-phenyl-7H-8,9-dihydro-pyrano[2,3-c]-imidazo[1,2-a]pyridine-6-carboxylate]	100
Cc1nc2c3c(c(C(=O)N(C)C)cn2c1C)CCC(c1ccccc1)O3 (stereo not drawn) [Example 3, 2,3-Dimethyl-9-phenyl-7H-8,9-dihydro-pyrano[2,3-c]-imidazo[1,2-a]pyridine-6-(N,N-dimethyl)carbamide]	100

Source: US7223771B2, “Tricyclic imidazopyridines” (Altana Pharma AG, priority 2001, dated 2007)
